As a reminder, the EC50 is the concentration that produces a half-maximal response.

Values joined by “and” are separate entries in the source; they are usually repeats but may differ in a detail not shown here. Identical values can stand only once.

Experimental findings from article PMC11473416, “Coumarin-chalcone derivatives as dual NLRP1 and NLRP3 inflammasome inhibitors targeting oxidative stress and inflammation in neurotoxin-induced HMC3 and BE(2)-M17 cell models of Parkinson's disease” (Frontiers in Aging Neuroscience, 2024) are described below.

Series [1] in a line: DPPH free radical scavenging activity. Particulars: 10–160 μM, 30 min, room temperature. The method, then: Stable 1,1-diphenyl-2-picrylhydrazyl (DPPH) radical in ethanol (100 μM; Sigma-Aldrich) was used to measure the antioxidant activity of these LM compounds. After addition of quercetin (positive control) or LM compound (10–160 μM), the mixture was vortexed for 15 s and incubated at room temperature for 30 min. Subsequently, the mixture was measured spectrophotometrically at 517 nm (Multiskan GO microplate spectrophotometer; Thermo Fisher Scientific). The free radical scavenging activity was calculated as the percentage of DPPH discoloration using the formula 1 – (absorbance of sample/absorbance of control) × 100%, with half maximal effective concentration (EC50) calculated using the interpolation method.
For orientation: Loss of DPPH colour is used to gauge radical scavenging.

The subject of a further series is NQO1. Briefly: Western blot NQO1 in MPP^+-treated BE(2)-M17 cells. The class given is cell-based, human. Particulars: BE(2)-M17, compound 10 μM + 0.62 mM MPP^+; MPP^+ alone 53%; untreated = 100%. Background: A western blot detects proteins with antibodies after separation by electrophoresis.
The subject of the next series is p-CREB (Ser133). Briefly: Western blot p-CREB (Ser133) in MPP^+-treated BE(2)-M17 cells. The class given is cell-based, human. Particulars: BE(2)-M17, compound 10 μM + 0.62 mM MPP^+; MPP^+ alone 83%; untreated = 100%. The method, then: (§1) HMC3 (2 × 10^5/6-well) or BE(2)-M17 (4 × 10^5/6-well) cells were lysed in buffer (composition: 50 mM Tris-HCl pH8.0, 2 mM EDTA pH8.0, 150 mM NaCl, 0.5% sodium deoxycholate, 0.1% SDS, 50 mM NaF, 1% NP40) containing the protease and/or phosphatase inhibitor cocktail (Sigma-Aldrich). After sonication, the lysates were centrifuged (12,000 × g for 10 min at 4°C) and protein concentrations determined (Bradford protein assay; Bio-Rad, Hercules, CA, USA). Aliquots of protein (20 μg) were separated by electrophoresis using 10%−12% SDS–polyacrylamide gel followed by transfer to a polyvinylidene fluoride (PVDF) membrane. […] The immune complexes were detected using horseradish peroxidase (HRP)-conjugated goat anti-mouse or goat anti-rabbit IgG antibody (1:5,000; GeneTex) and chemiluminescent HRP substrate (Millipore, Burlington, MA, USA). Immunoreactive bands were captured (ImageQuant™ LAS 4000, GE Healthcare, Chicago, IL, USA) and quantified (Multi Gauge V3.0 software, Fujifilm, Tokyo, Japan).

The subject of another series is BCL2. Briefly: Western blot BCL2 in MPP^+-treated BE(2)-M17 cells. Particulars: BE(2)-M17, compound 10 μM + 0.62 mM MPP^+; MPP^+ alone 70%; untreated = 100%. The class given is cell-based, human. The method, then: as §1
For the next series, the system named is BE(2)-M17 cells. The experiment in a line: cytotoxicity MTT assay in BE(2)-M17 cells. It counts as cell-based, human. Particulars: MPP^+ at 0.62 mM. The method, then:
Human HMC3 microglial (CRL-3304) and neuroblastoma BE(2)-M17 (CRL-2267) cells were obtained from American Type Culture Collection. BE(2)-M17 develops a better dopaminergic phenotype than SH-SY5Y when treated with retinoic acid to direct neuronal differentiation (Carvajal-Oliveros et al., [2022]). Cells were routinely maintained in Dulbecco's Modified Eagle Medium-Nutrient Mixture F12 (DMEM-F12) supplemented with 10% fetal bovine serum (FBS; Thermo Fisher Scientific, Waltham, MA, USA) in a 37°C incubator, with 95% relative humidity and 5% CO2 (NuAire, Plymouth, MN, USA).
To evaluate cytotoxicity of LM compounds and MPP^+, HMC3 (1 × 10^4) or BE(2)-M17 (2 × 10^4) cells were plated on 96-well dishes, grown for 20 h, and treated with LM compounds (1–100 μM) or MPP^+ [HMC3: 0–8 mM; BE(2)-M17: 0–5 mM]. Next day, 20 μl of tetrazolium dye 3-(4,5-dimethylthiazol-2-yl)-2,5-diphenyltetrazolium bromide (MTT, 5 mg/ml; Sigma-Aldrich) was added to the cells at 37°C for 3 h. The resulted insoluble purple formazan products were dissolved by lysis buffer (composition: 10% Triton X-100, 0.1 N HCl, 18% isopropanol). The absorbance of the dissolved product at optical density (OD) 570 nm was read by using a FLx800 fluorescence microplate spectrophotometer (Bio-Tek, Winooski, VT, USA). The half maximal inhibitory concentration (IC50) of LM compounds was determined through the construction of a dose-response curve. MPP^+ at 4 mM (HMC3 cell viability: 65%−69%) or 0.62 mM [BE(2)-M17 cell viability: 79%−84%] was selected to induce inflammation for further experiments.
On the technique in general: Tetrazolium dyes change colour on reduction, which living cells bring about.

A further series relates to NLRP3. Briefly: Western blot NLRP3 in MPP^+-stimulated HMC3 cells. The class given is cell-based, human. Particulars: HMC3, 4 mM MPP^+ alone; untreated = 100%. The method, then:
as §1

A further series relates to IL-6. Briefly: Western blot IL-6 in MPP^+-stimulated HMC3 cells. Particulars: HMC3, 4 mM MPP^+ alone; untreated = 100%. It counts as cell-based, human. As to the method: as §1
For another series, the system named is caspase-6. Briefly: caspase-6 activity assay in MPP^+-treated BE(2)-M17 cells. It counts as cell-based, human. Particulars: BE(2)-M17, 0.62 mM MPP^+ alone; untreated = 100%. As to the method: BE(2)-M17 cells were plated onto six-well (4 × 10^5/well) and treated with retinoic acid, LM compounds (10 μM), and MPP^+ as described. Cells were collected on day 7 and lysed by six freeze/thaw cycles. Types of substrates applied were: Ac-Tyr-Val-Ala-Asp-7-amino-4-trifluoromethyl coumarin (YVAD-AFC) for caspase-1, Ac-Val-Glu-Ile-Asp-7-amino-4-trifluoromethyl coumarin (VEID-AFC) for caspase-6 (BioVision, Milpitas, CA, USA), and Ac-Asp-Glu-Val-Asp-7-amido-4-methylcoumarin (DEVD-AMC) for caspase-3 (Sigma-Aldrich). The reaction mixtures were incubated for 1.5 h at 37°C per the manufacturer's instructions. The fluorescence intensity at 400 nm excitation and 505 nm emission (caspase-1 and caspase-6) or 360 nm excitation and 460 nm emission (caspase-3) wavelengths were recorded (BioTek FLx800).

Method for NQO1: HMC3 (2 × 10^5/6-well) or BE(2)-M17 (4 × 10^5/6-well) cells were lysed in buffer (composition: 50 mM Tris-HCl pH8.0, 2 mM EDTA pH8.0, 150 mM NaCl, 0.5% sodium deoxycholate, 0.1% SDS, 50 mM NaF, 1% NP40) containing the protease and/or phosphatase inhibitor cocktail (Sigma-Aldrich). After sonication, the lysates were centrifuged (12,000 × g for 10 min at 4°C) and protein concentrations determined (Bradford protein assay; Bio-Rad, Hercules, CA, USA). […] The immune complexes were detected using horseradish peroxidase (HRP)-conjugated goat anti-mouse or goat anti-rabbit IgG antibody (1:5,000; GeneTex) and chemiluminescent HRP substrate (Millipore, Burlington, MA, USA). Immunoreactive bands were captured (ImageQuant™ LAS 4000, GE Healthcare, Chicago, IL, USA) and quantified (Multi Gauge V3.0 software, Fujifilm, Tokyo, Japan).

As for `Cc1ccc(/C=C/C(=O)c2c(O)c3ccccc3oc2=O)cc1` [LM-016], the half-maximal effective concentration (EC50) in series [1] turned out to be 127 µM. Further, the NQO1 level in the series on NQO1 is 81–86%.
Take `CN(C)c1ccc(/C=C/C(=O)c2c(O)c3ccccc3oc2=O)cc1` [LM-021, (E)-3-(3-(4-(dimethylamino)phenyl)acryloyl)-4-hydroxy-2H-chromen-2-one]: the EC50 in series [1] is 65 µM. Besides, the “p-CREB (Ser133) level” value in the series on p-CREB (Ser133) is reported as 102–105%. In addition, the BCL2 level with BCL2 is 99–110%.
Turning to `O=C(/C=C/c1ccccc1O)c1c(O)c2ccccc2oc1=O` [LM-036], the NQO1 level with NQO1 is on record as 81–86%. Also, the “p-CREB (Ser133) level” value in the series with p-CREB (Ser133) is given as 102–105%. Moreover, the BCL2 level with BCL2 is listed as 99–110%.
Regarding `C[n+]1ccc(-c2ccccc2)cc1` [MPP^+, 1-methyl-4-phenyl pyridinium, reference compound], in the series with BE(2)-M17 cells, the cell viability was 79%−84% and 80%. This molecule also gave an NLRP3 expression in the series with NLRP3 of 233%. Further, the IL-6 expression in the series with IL-6 was found to be 182%. For the same molecule, the caspase-6 activity with caspase-6 is listed as 116%.
